# Experimental data published in US8183287B2, “Pharmaceutical formulations and compositions of a selective antagonist of either CXCR2 or both CXCR1 and CXCR2 and methods of using the same for treating inflammatory disorders” (Schering Corporation, priority 2006, dated 2012).
# Test: clinical study in subjects with moderate to severe COPD
# Assay type: in vivo, human
# Details: subjects with moderate to severe COPD, 3, 10, 30 mg, 12 weeks
# Protocol: This study, illustrated schematically in FIG. 4, is a double-blind, placebo-controlled, randomized, two-part study in subjects with moderate to severe COPD. Part 1 is a double-blind, placebo-controlled, randomized, rising-dose study consisting of four treatment groups enrolled in three cohorts (FIG. 4A). The treatment period for each cohort is 12 weeks in duration. […] After completing the safety analyses for Part 1 for Cohorts 1-3, Part 2 is conducted as detailed below. Part 2 is a double-blind, placebo-controlled, randomized, parallel group study consisting of four treatment groups enrolled as one cohort (FIG. 4B). The treatment period for Cohort 4 is 12 weeks in duration. […] Efficacy analyses are based solely on data collected from Part 2, Cohort 4 wherein the primary efficacy parameters measured are changes from Baseline in FEV1 and changes from Baseline in SCDS, both examined as longitudinal averages over the 12-week treatment period. […]
compound,measurement,value
CC[C@@H](Nc1c(Nc2cccc(C(=O)N(C)C)c2O)c(=O)c1=O)c1ccc(C)o1 [Compound I],sputum neutrophil and peripheral blood neutrophils,reduction in sputum neutrophil and peripheral blood neutrophils
